ChEMBL document CHEMBL1201862, “PubChem BioAssay data set” (2004)
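Method: 48-hour compound exposure of cells in 96-well plates, five concentrations, linear interpolation of endpoints. GI50 marks 50% less growth.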 Calls of active or inactive are those of the source. No stated cut-off is given here; in the data, active = GI50 up to about 1.1 µM and inactive = higher.

Tests used:
Experiment in all cases: DTP human tumour cell line panel, 48 h
RXF 393 = system: RXF 393
786-0 = system: 786-0
SK-OV-3 = system: SK-OV-3
UACC-257 = system: UACC-257
M14 = system: M14
NCI-H460 = system: NCI-H460
MOLT-4 = system: MOLT-4
SW-620 = system: SW-620
HCT-15 = system: HCT-15
EKVX = system: EKVX
HOP-92 = system: HOP-92
HCC 2998 = system: HCC 2998
LXFL 529 = system: LXFL 529
NCI-H226 = system: NCI-H226
NCI-H23 = system: NCI-H23
OVCAR-3 = system: OVCAR-3
SF-268 = system: SF-268
MCF7 = system: MCF7
DU-145 = system: DU-145
MDA-MB-231 = system: MDA-MB-231

Structure (SMILES) | GI50 (RXF 393) | GI50 (786-0) | GI50 (SK-OV-3) | GI50 (UACC-257) | GI50 (M14) | GI50 (NCI-H460) | GI50 (MOLT-4) | GI50 (SW-620) | GI50 (HCT-15) | GI50 (EKVX) | GI50 (HOP-92) | GI50 (HCC 2998) | GI50 (LXFL 529) | GI50 (NCI-H226) | GI50 (NCI-H23) | GI50 (OVCAR-3) | GI50 (SF-268) | GI50 (MCF7) | GI50 (DU-145) | GI50 (MDA-MB-231)
Cc1ccc(C(=O)O)cc1NC(=O)c1cc(/C=C/c2ccccc2)[nH]c(=S)n1 | > 100 µM (inactive) | > 64.3 µM (inactive) | > 100 µM (inactive) | > 100 µM (inactive) | > 100 µM (inactive) | > 100 µM (inactive) | > 100 µM (inactive) | > 28.9 µM (inactive) | > 45 µM | > 100 µM (inactive) | > 100 µM (inactive) | > 100 µM (inactive) | > 84.5 µM (inactive) | > 100 µM (inactive) | > 100 µM (inactive) | > 100 µM (inactive) | > 100 µM (inactive) |  |  | 
COc1cc2nncc(Sc3cnnc4ccccc34)c2cc1OC |  | 27.4 µM (inactive) | 14.7 µM (inactive) | 23.1 µM (inactive) | 18 µM (inactive) | 22.8 µM (inactive) | 22.2 µM (inactive) | 16.6 µM (inactive) | 24.7 µM | 37.1 µM (inactive) | 6.14 µM (inactive) | 17.6 µM (inactive) | 9.79 µM (inactive) | 23.7 µM (inactive) | > 10 µM (inactive) | 17.4 µM (inactive) | 31.1 µM (inactive) |  |  | 
Cc1sc2[nH]c(=O)oc(=O)c2c1C | > 100 µM (inactive) | 70.3 µM (inactive) | > 100 µM (inactive) | > 100 µM (inactive) | > 61.9 µM (inactive) | > 100 µM (inactive) | 48.5 µM (inactive) | > 80.4 µM (inactive) | > 89.9 µM | > 100 µM (inactive) | > 100 µM (inactive) | > 88.5 µM (inactive) |  | > 74.5 µM (inactive) | > 100 µM (inactive) | 55 µM (inactive) | 53.8 µM (inactive) | 26.1 µM (inactive) | > 100 µM (inactive) | > 70.8 µM (inactive)
O=[N+]([O-])c1ccc(-c2noc(-c3ccccc3)c2C2=NCCN2)cc1 | 38.6 µM (inactive) | 54 µM (inactive) |  | 41.2 µM (inactive) | 87.9 µM (inactive) | > 100 µM (inactive) | > 100 µM (inactive) | > 100 µM (inactive) | > 100 µM | > 100 µM (inactive) |  | > 100 µM (inactive) | > 100 µM (inactive) | 75.2 µM (inactive) |  | 28.6 µM (inactive) | 63.2 µM (inactive) |  |  | 
C#CCn1c(=O)c2cccnc2n(CC#C)c1=O | > 100 µM (inactive) | > 100 µM (inactive) | > 100 µM (inactive) | > 100 µM (inactive) | > 100 µM (inactive) | > 100 µM (inactive) | > 100 µM (inactive) | > 100 µM (inactive) | > 100 µM |  | > 100 µM (inactive) | > 100 µM (inactive) | > 100 µM (inactive) | > 100 µM (inactive) | > 100 µM (inactive) |  | > 100 µM (inactive) |  |  | 
NNC(=O)C(=O)N/N=C1\CCCC1C(=O)CCC(=O)Nc1cccc(Cl)c1 (stereo not drawn) | > 100 µM (inactive) | > 100 µM (inactive) |  | > 100 µM (inactive) | > 100 µM (inactive) | > 100 µM (inactive) | > 100 µM (inactive) | > 100 µM (inactive) |  | > 100 µM (inactive) | > 100 µM (inactive) | > 100 µM (inactive) | > 100 µM (inactive) | > 100 µM (inactive) | > 100 µM (inactive) | > 100 µM (inactive) | > 100 µM (inactive) |  |  | 
O=C(O)C1C(C(=O)O)C2C(=O)C=CC1N2Cc1ccccc1 (stereo not drawn) | 2.72 µM (inactive) | 2.49 µM (inactive) | 5.35 µM (inactive) | 2.62 µM (inactive) | 2.25 µM (inactive) | 1.98 µM (inactive) | 3.54 µM (inactive) | 2.65 µM (inactive) | 2.46 µM | 3.06 µM (inactive) | 9.55 µM (inactive) | 2.8 µM (inactive) |  | 16 µM (inactive) | 2.27 µM (inactive) | 2.87 µM (inactive) | 3.24 µM (inactive) | 4.63 µM (inactive) | 1.99 µM (inactive) | 3.16 µM (inactive)
CCN(CC)CC1c2ccccc2C(CNc2ccccc2)N1C (stereo not drawn) | > 100 µM (inactive) | > 100 µM (inactive) | > 100 µM (inactive) | > 100 µM (inactive) | > 100 µM (inactive) | > 100 µM (inactive) | 80.4 µM (inactive) | > 100 µM (inactive) | > 100 µM | > 100 µM (inactive) | 30.1 µM (inactive) | > 100 µM (inactive) | > 100 µM (inactive) |  | > 100 µM (inactive) | > 100 µM (inactive) | > 100 µM (inactive) |  |  | 
O.O=C([O-])c1ccccc1Nc1ccccc1C(=O)[O-].[Zn+2] | 20.6 µM (inactive) | 24.1 µM (inactive) | 20.4 µM (inactive) | 14.3 µM (inactive) | 35.1 µM (inactive) | > 65.9 µM (inactive) | 30.5 µM (inactive) | 23.6 µM (inactive) | > 60 µM | 24.7 µM (inactive) | 18.7 µM (inactive) | > 100 µM (inactive) | 22.1 µM (inactive) | 31 µM (inactive) | 18.2 µM (inactive) | 18.8 µM (inactive) | 21 µM (inactive) |  |  | 
